In patent US11767296B2, “Heteroaryl compounds as kinase inhibitor” (FUJIAN HAIXI PHARMACEUTICALS CO., LTD, priority 2018, dated 2023):

Assays:
CSF-1R = target: T1, CSF-1R (Homo sapiens, UniProt P07333); assay: CSF-1R kinase assay (HTRF kinEASE TK); assay type: biochemical; conditions: ATP 2.5 uM, enzyme 0.012 ng/ul, read-out: In vitro inhibitory activity of CSF-1R IC50
T1 construct: purchased Invitrogen PV3249
Protocol: Example 53: CSF-1R Kinase Assay
I. Materials and Instruments
• 2104 EnVision® Multilabel Reader (PerkinElmer) • OptiPlate-384, White Opaque 384-well MicroPlate (Cat.6007290, PerkinElmer) • HTRF kinEASE TK (Cat.62TKOPEC, Cisbio) • CSF-1R(Cat. PV3249, Invitrogen) • ATP 10 mM (Cat. PV3227, Invitrogen) • DTT 1 M (Cat. D5545, Sigma) • MgCl2 1 M (Cat. M8266, Sigma) • MnCl2 1 M (Cat.244589. Sigma)
II. Experimental Procedure
Substrate-TK and ATP were diluted to 5 times of the reaction concentration by 1×Kinase Buffer. CSF1R enzyme was diluted to 5×enzyme solution by 1×kinase buffer. Sa-XL665 was diluted to 4×Sa-XL665 solution by Detection Buffer. 100×TK-Ab-Cryptate Solution TK-Ab-Cryptate was diluted to 100×TK-Ab-Cryptate solution by Detection Buffer. 2. Experimental Procedure After all reagents had been prepared according to the above method, except enzymes, the sample was added after equilibrium to room temperature. • a. Firstly, 2.5% DMSO solution was prepared by using 1×kinase buffer (the high concentration of DMSO will affect the reaction and control the final concentration of DMSO to 1%). Then the compounds were diluted by 2.5% DMSO solution corresponding to the enzyme. The screening concentration of the compounds was 4 times gradient dilution from 1000 nM, and 8 concentrations. In addition to the control pore, 4 microlitres of diluted solution containing 2.5% DMSO were added to the reaction pore and 4 microlitres of previously prepared solution containing 2.5% DMSO were added to the control pore. • b. 2 microlitres of previously prepared TK-biotin substrate solution was added to all reaction pore (the amount of substrate used for enzyme screening is shown in Table 15). • c. Adding 2 microlitres of CSF1R enzyme solution of corresponding concentration (the amount of enzyme is shown in Table 15) to all reaction pore except negative pore. The negative pore is supplemented with 2 microlitres of enzyme corresponding to 1 xkinase buffer. After mixing, the compound and enzyme can be fully combined by incubating at room temperature for 10 minutes. • d. Enzyme reaction was initiated by adding 2 microlitres ATP solution of corresponding concentration to all reaction pore. The reaction time was 30 minutes (the corresponding ATP concentration and reaction time at enzyme screening were shown in Table 15). • e. Preparing the test solution 5 minutes before the end of kinase reaction. Streptavidin-XL665 and TK antibody europium cryptate (1:100) were prepared with detection buffer in the kit (the corresponding concentration of detection reagent for enzyme screening is shown in Table 15). • f. After the kinase reaction, 5 microlitres of diluted Streptavidin-XL665 were added to all reaction pore, mixing, and then the diluted TK antibody europium cryptate solution was added immediately. • g. After 1 hour reaction at room temperature, the fluorescence signals (320 nm stimulation, 665 nm, 615 nm emission) were detected by ENVISION (Perkinelmer) instrument. The inhibition rate of each pore was calculated by full active pore and background signal pore, and the average value of complex pore was obtained. Meanwhile, the half inhibitory activity (IC50) of each compound was fitted by professional drawing analysis software PRISM 5.0. The Flow Chart of the Experiment is as Follows:
3. Data Analysis Emission Ratio (ER)=665 nm Emission signal/615 nm Emission signal Inhibitory rate=(ERpositive−ERsample)/(ERpositive−ERnegative)*100% Using Graphpad Prism 5 and log (inhibitor) vs. normalized response to fit IC50 curve and calculate IC50 value. The IC50 data of the compounds prepared in Representative Examples 3-52 are as follows (Table 18): […]

NFS-60 cells = assay: NFS-60 cell assay (CCK proliferation, M-CSF stimulated); assay type: cell-based; conditions: Mus musculus, compound 0.5 uM, 72 h, 40 ng/mL M-CSF, read-out: inhibition ratio % (NFS-60 cell proliferation)
Protocol: Example 54: NFS-60 Cell Assay
1. Experimental Materials
Mouse Myelogenous Leukemia Cells (NFS-60)
Using DMSO to dissolve, and the required concentration was prepared with full culture medium without factors.
Penicillin-streptomycin: TRANS
Mouse M-CSF/CSF-1 Protein: Sino Biological Inc, No. 51112-MNAH
M-CSF: Qilu Pharmaceutical co., Ltd.
The logarithmic growth phase of NFS-60 cells (1640+10% FBS+40 ng/ml M-CSF+1% Penicillin-streptomycin) were centrifuged (1000 r/min) and cultured in a factor-free medium at 37° C., 5% CO2 for 24 hours. Centrifugating (1000 r/min), the culture medium was replaced by new culture medium including 40 ng/mL factors, and inoculated on 96-well plate by 2*10^4 cells/mL, 100 μL/hole. After 16 hours, the tested compounds were added 10 μL/hole, 3 duplicate holes per compound, 37° C., 5% CO2, continue to cultured for 72 h. Then 10 μL CCK reagent was added to each hole. After incubation for 4 hours, the absorbance of each hole was measured at 450 nm wavelength. According to Formula: Inhibitory rate (%)=(1-OD value of test pore/OD value of solvent control pore)×100% 3. Experimental Results The experimental results of the inhibition of NFS-60 cell proliferation by the compounds prepared in Example 3-52, 0.5 uM, are shown in the following table: […]

T1 sequence (P07333 20-972): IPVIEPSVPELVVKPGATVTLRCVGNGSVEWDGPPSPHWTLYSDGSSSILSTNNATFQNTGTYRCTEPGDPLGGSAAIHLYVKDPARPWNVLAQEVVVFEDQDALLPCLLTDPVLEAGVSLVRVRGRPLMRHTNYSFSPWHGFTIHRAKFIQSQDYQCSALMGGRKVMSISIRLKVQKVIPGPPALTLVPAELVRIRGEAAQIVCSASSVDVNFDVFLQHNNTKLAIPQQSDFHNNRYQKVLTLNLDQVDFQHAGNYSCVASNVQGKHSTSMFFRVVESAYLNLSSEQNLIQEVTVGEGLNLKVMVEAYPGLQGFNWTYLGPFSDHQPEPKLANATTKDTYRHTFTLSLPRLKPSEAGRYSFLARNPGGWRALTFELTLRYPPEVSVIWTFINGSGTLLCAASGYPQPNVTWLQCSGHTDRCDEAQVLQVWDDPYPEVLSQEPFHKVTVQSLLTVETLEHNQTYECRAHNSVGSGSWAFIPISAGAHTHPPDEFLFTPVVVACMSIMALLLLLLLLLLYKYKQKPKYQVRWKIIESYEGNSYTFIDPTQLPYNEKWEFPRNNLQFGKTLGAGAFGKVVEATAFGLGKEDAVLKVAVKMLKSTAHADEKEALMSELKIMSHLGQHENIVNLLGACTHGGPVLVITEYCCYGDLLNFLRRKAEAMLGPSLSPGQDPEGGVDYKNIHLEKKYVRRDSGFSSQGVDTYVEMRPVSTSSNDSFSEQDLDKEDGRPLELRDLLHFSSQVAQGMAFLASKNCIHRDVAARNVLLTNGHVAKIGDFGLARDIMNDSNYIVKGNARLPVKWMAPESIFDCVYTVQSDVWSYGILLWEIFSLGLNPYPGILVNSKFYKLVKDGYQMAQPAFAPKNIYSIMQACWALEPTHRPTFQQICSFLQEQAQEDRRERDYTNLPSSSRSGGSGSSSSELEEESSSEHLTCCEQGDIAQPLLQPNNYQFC

| SMILES | IC50 (CSF-1R) | inhibition at 0.5 µM (NFS-60 cells) |
| --- | --- | --- |
| C[C@@H](Oc1cncc(Cl)n1)c1cccc(NC(=O)c2cccc(C(F)(F)F)c2)c1 [Compound 327, (R)—N-(3-(1-((6-chloropyrazin-2-yl)oxy)ethyl)phenyl)-3-(trifluoromethyl)benzamide] | 51 to 500 nM |  |
| Cc1cccc(C(=O)Nc2cccc([C@@H](C)Oc3cncc(Cl)c3)c2)c1 [Compound 323, (R)—N-(3-(1-((5-chloropyridin-3-yl)oxy)ethyl)phenyl)-3-methylbenzamide] | 51 to 500 nM |  |
| C[C@@H](Oc1cc(Cl)cnc1N)c1cccc(NC(=O)c2cc(C(F)(F)F)cc(S(C)(=O)=O)c2)c1 [Compound 150, (R)-N-(3-(1-((2-amino-5-chloropyridin-3-yl)oxy)ethyl)-phenyl)-3-(methylsulfonyl)-5-(trifluoromethyl)benzamide] |  | ≥ 50% |
| C[C@@H](Oc1cc(-c2cnn(C)c2)cnc1N)c1cccc(NC(=O)c2cccc(C(F)(F)F)c2)c1 [Compound 169, (R)-N-(3-(1-((2-amino-5-(1-methyl-1H-pyrazol-4-yl)pyridin-3-yl)oxy)ethyl)phenyl)-3-(trifluoromethyl)benzamide] |  | ≥ 50% |
| COc1cccc(C(=O)Nc2cc(C(C)Oc3cc(Cl)cnc3N)ccc2F)c1 (stereo not drawn) [Compound 318, N-(5-(1-((2-amino-5-chloropyridin-3-yl)oxy)ethyl)-2-fluorophenyl)-3-methoxybenzamide] | 51 to 500 nM |  |
| Cc1ccc(C(=O)Nc2cccc([C@@H](C)Oc3cc(-c4cnn(C)c4)cnc3N)c2)cc1C [Compound 170, (R)-N-(3-(1-((2-amino-5-(1-methyl-1H-pyrazol-4-yl)pyridin-3-yl)oxy)ethyl)phenyl)-3,4-dimethyl benzamide] | ≤ 50 nM |  |
| Nc1ncc(Cl)cc1OCc1cccc(NC(=O)c2cccc(Cl)c2)c1 [Compound 22, N-(3-(((2-amino-5-chloropyridin-3-yl)oxy)methyl)phenyl)-3-chloro-benzamide] | ≤ 50 nM |  |
| C[C@@H](Oc1cc(-c2cnn(C)c2)cnc1N)c1cccc(NC(=O)c2ccc(C(F)(F)F)c(S(C)(=O)=O)c2)c1 [Compound 175, (R)-N-(3-(1-((2-amino-5-(1-methyl-1H-pyrazol-4-yl)pyridin-3-yl)oxy)ethyl)phenyl)-3-(methylsulfonyl)-4-(trifluoromethyl)benzamide] | ≤ 50 nM |  |
| C[C@@H](Oc1cc(Cl)cnc1N)c1cccc(NC(=O)c2cccc(CN3CCN(C)CC3)c2)c1 [Compound 103, (R)-N-(3-(1-((2-amino-5-chloropyridin-3-yl)oxy)ethyl)-phenyl)-3-((4-methylpiperazin-1-yl)methyl)benzamide] | 500 to 10000 nM |  |
| CC(C)c1cccc(C(=O)Nc2cccc([C@@H](C)Oc3cc(-c4cnn(C)c4)cnc3N)c2)c1 [Compound 187, (R)-N-(3-(1-((2-amino-5-(1-methyl-1H-pyrazol-4-yl)pyridin-3-yl)oxy)ethyl)phenyl)-3-isopropylbenzamide] | ≤ 50 nM |  |
| Cc1cccc(NC(=O)c2cccc([C@H](C)Oc3cc(Cl)cnc3N)c2)c1 [Compound 222, (S)-3-(1-((2-amino-5-chloropyridin-3-yl)oxy)ethyl)-N-(m-tolyl)benzamide] | 51 to 500 nM |  |
| Cc1cc(C)cc(C(=O)Nc2cccc([C@@H](C)Oc3cc(-c4cnn(C)c4)cnc3N)c2)c1 [Compound 171, (R)-N-(3-(1-((2-amino-5-(1-methyl-1H-pyrazol-4-yl)pyridin-3-yl)oxy)ethyl)phenyl)-3,5-dimethyl benzamide] | ≤ 50 nM |  |
| Cc1cccc(C(=O)Nc2cccc(Oc3cc(Cl)cnc3N)c2)c1 [Compound 305, N-(3-((2-amino-5-chloropyridin-3-yl)oxy)phenyl)-3-methyl-benzamide] | 51 to 500 nM |  |
| C[C@@H](Oc1cc(-c2cnn(C)c2)cnc1N)c1cccc(NC(=O)c2cccc(C3CC3)c2)c1 [Compound 174, (R)-N-(3-(1-((2-amino-5-(1-methyl-1H-pyrazol-4-yl)pyridin-3-yl)oxy)ethyl)phenyl)-cyclopropylbenzamide] | ≤ 50 nM |  |
| C[C@@H](Oc1cc(-c2cnn(C)c2)cnc1N)c1cccc(NC(=O)c2ccc3c(c2)CCC3)c1 [Compound 188, (R)-N-(3-(1-((2-amino-5-(1-methyl-1H-pyrazol-4-yl)pyridin-3-yl)oxy)ethyl)phenyl)-2,3-dihydro-1H-indene-5-carboxamide] | ≤ 50 nM |  |
| Cc1cccc(C(=O)Nc2cccc([C@@H](C)Oc3cc(Cl)cnc3N)n2)c1 [Compound 141, (R)-N-(6-(1-((2-amino-5-chloropyridin-3-yl)oxy)ethyl)-pyridin-2-yl)-3-methylbenzamide] | 51 to 500 nM |  |
| Cc1cccc(C(=O)Nc2cccc([C@@H](C)Oc3cc(-c4cccnc4)cnc3N)c2)c1 [Compound 202, (R)-N-(3-(1-((6-amino-[3,3′-bipyridin]-5-yl)oxy)ethyl)phenyl)-3-methylbenzamide] | ≤ 50 nM |  |
| Cc1cccc(C(=O)Nc2ccc(Cl)c([C@@H](C)Oc3cc(Cl)cnc3N)c2)c1Cl [Compound 95, (R)-N-(3-(1-((2-amino-5-chloropyridin-3-yl)oxy)ethyl)-4-chlorophenyl)-2-chloro-3-methylbenzamide] | 51 to 500 nM |  |
| C[C@H](Oc1cc(Cl)cnc1N)c1cccc(NC(=O)c2cccc(Cl)c2)c1 [Compound 55, (S)-N-(3-(1-((2-amino-5-chloropyridin-3-yl)oxy)ethyl)-phenyl)-3-chlorobenzamide] | ≤ 50 nM |  |
| Cc1ccc(Cl)c(C(=O)Nc2cccc([C@@H](C)Oc3cc(Cl)cnc3N)c2)c1 [Compound 73, (R)-N-(3-(1-((2-amino-5-chloropyridin-3-yl)oxy)ethyl)-phenyl)-2-chloro-5-methylbenzamide] | ≤ 50 nM |  |
| CNc1ncc(Cl)cc1OCc1cccc(NC(=O)c2cccc(C)c2)c1 [Compound 236, N-(3-(((5-chloro-2-(methylamino)pyridin-3-yl)oxy)methyl)phenyl)-3-methylbenzamide] | 51 to 500 nM |  |
| Cn1cc(-c2cnc(N)c(Oc3cccc(NC(=O)Nc4ccc(Cl)c(C(F)(F)F)c4)c3)c2)cn1 [Compound 348, 1-(3-((2-amino-5-(1-methyl-1H-pyrazol-4-yl)pyridin-3-yl)oxy)phenyl)-3-(4-chloro-3-(trifluoromethyl)phenyl)urea] | ≤ 50 nM |  |
| Cc1cccc(NC(=O)Nc2cccc(Oc3cc(Cl)cnc3N)c2)c1 [Compound 331, 1-(3-((2-amino-5-chloropyridin-3-yl)oxy)phenyl)-3-(m-tolyl)urea] | 51 to 500 nM |  |
| Cc1cccc(C(=O)Nc2cccc([C@H](C)Oc3cc(Cl)cnc3N)c2)c1Cl [Compound 64, (S)-N-(3-(1-((2-amino-5-chloropyridin-3-yl)oxy)ethyl)-phenyl)-2-chloro-3-methylbenzamide] | ≤ 50 nM |  |
